Measured values taken from patent US20170290854A1, “COMPOSITIONS AND METHODS FOR TREATING AND PREVENTING BACTERIAL INFECTIONS” (K10 Technologies, Inc., priority 2014, published 2017).
≈ marks a conversion by molar mass, not a printed value.

What was measured:
Experiment in all cases: MIC assay (Experiments II)
Format in all cases: cell-based
[1] = test system: Streptococcus pyogenes ATCC 51339; details: ATCC51339, S. pyogenes ATCC 51339, 24 hours, read-out: Minimal inhibitory concentration
Description: (§1) A test sample of water containing water clusters at a concentration of approximately 150 million water clusters per drop of water, with an average water droplet size of 500 microns in diameter, was stored at room temperature until required. The sample of water was prepared according to the methods described in S. Y. Lo et al., Evidence for the existence of stable-water-clusters at room temperature and normal pressure. Physics Letters A (2009)). Linezolid diluted in dimethyl sulfoxide was used as a control.
(§2) The test sample of water containing water clusters was added to the first well of a 96-well plate. 2-fold dilutions were performed into all of the wells of that row containing cation-adjusted Mueller-Hinton Broth (CA-MHB) with 5% lysed horse blood except for the last well, which was used as a control without any testing agent. This was repeated in Brain Heart Infusion (BHI) broth. The Linezolid control followed a similar protocol but was diluted to 8 μg/mL in the first well, followed by 2-fold serial dilutions into both CA-MHB with 5% lysed horse blood and BHI broth.
(§3) Streptococcus mutans ATCC 31341, Streptococcus pneumonia ATCC 49619, and Streptococcus pyogenes ATCC 51339 were obtained from the American Type Culture Collection (Manassas, Va.). All strains were maintained as frozen glycerol stocks at −80° C. Working stocks were prepared by streaking bacteria onto Sheep Blood Agar plates, growing at 37° C. with 5% CO2 for 24 hours and suspending isolated colonies in 3 mL of 0.9% sterile saline to approximately 1×10^8 CFU/mL.
(§4) Bacterial working stocks were diluted into appropriate liquid media for a final inocula of about 5×10^6 CFU/mL. CA-MHB with 5% lysed horse blood was used for all the Streptococcus spp. While BHI broth was also used for S. mutans. 10 μL of stock suspension was added to each well of a 96-well MIC plate treated with the test sample of water containing water clusters. […] The plates were incubated at 35° C. with 5% CO2 for a full 24 hours before reading.

[2] = test system: Streptococcus pneumonia ATCC 49619; details: Streptococcus pneumoniae, ATCC49619; S. pneumonia ATCC 49619; 24 hours; read-out: Minimal inhibitory concentration
Description: as §1, §2, §3, §4

[3] = test system: Streptococcus mutans ATCC 31341; details: ATCC31341, S. mutans ATCC 31341, 24 hours, read-out: Minimal inhibitory concentration
Description: as §1, §2, §3, §4

MIC [1]: 1 µg/mL (≈ 2.96 µM)
MIC [2]: 1 µg/mL (≈ 2.96 µM)
MIC [3]: 1 µg/mL (≈ 2.96 µM)
Structure (SMILES): CC(=O)NC[C@H]1CN(c2ccc(N3CCOCC3)c(F)c2)C(=O)O1 [Linezolid]
